Measured values as given in patent publication US20220402950A1, “SUBSTITUTED BENZIMIDAZOLES AS PAD4 INHIBITORS” (BRISTOL-MYERS SQUIBB COMPANY, priority 2018, published 2022).
Where two headings read alike, the source gives them in different places.

Biological target: human PAD4 (hPAD4) (Homo sapiens, UniProt Q9UM07)
Assay: RFMS Human PAD4 Functional Assay
Assay type: biochemical
Details: 5 nM hPAD4, 250 μM BAEE
Summary of the method: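 RapidFire ESI-MS quantification, normalised to a modified-citrulline internal standard, after phenyl glyoxal (final 4 mM) derivatisation of the TCA-quenched reaction. The enzyme (10 nM) sat 30 min with compound (up to 50 μM final) before 500 μM BAEE (as added) started a 90 min, 37 °C reaction. Buffer: HEPES pH 7.5, 50 μM calcium, 5 μM TPEN.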

[1] = hPAD4 RFMS IC50, human PAD4, rapid-fire mass spectrum (RFMS) assay
[2] = human PAD4, rapid-fire mass spectrum (RFMS) assay, read-out: hPAD4 RFMS IC50

human PAD4 (hPAD4), sequence (Q9UM07 whole entry): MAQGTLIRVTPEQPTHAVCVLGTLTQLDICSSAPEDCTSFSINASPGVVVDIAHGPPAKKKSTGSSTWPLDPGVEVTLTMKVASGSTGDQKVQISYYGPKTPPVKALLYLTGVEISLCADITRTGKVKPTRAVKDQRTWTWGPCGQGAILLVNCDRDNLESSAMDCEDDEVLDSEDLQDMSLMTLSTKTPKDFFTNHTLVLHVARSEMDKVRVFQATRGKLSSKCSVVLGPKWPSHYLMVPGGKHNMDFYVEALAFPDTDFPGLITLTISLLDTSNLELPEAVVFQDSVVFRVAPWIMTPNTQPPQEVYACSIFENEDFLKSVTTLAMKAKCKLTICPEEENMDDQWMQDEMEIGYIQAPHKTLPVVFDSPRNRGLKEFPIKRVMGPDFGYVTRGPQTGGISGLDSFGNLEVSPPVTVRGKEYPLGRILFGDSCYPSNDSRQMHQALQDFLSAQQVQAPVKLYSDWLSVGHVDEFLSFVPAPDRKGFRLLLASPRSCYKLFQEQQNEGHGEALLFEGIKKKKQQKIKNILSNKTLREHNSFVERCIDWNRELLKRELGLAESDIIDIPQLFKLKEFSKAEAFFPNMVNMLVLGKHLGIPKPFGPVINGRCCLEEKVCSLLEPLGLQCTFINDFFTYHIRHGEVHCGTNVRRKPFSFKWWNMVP

| IC50 [1] [nM] | IC50 [2] [nM] | SMILES |
| --- | --- | --- |
| 20 |  | COc1cc(C(=O)N2C[C@H]3CC[C@@H]2[C@@H]3N)cc2nc(-c3cc4cccc(C5CCN(C(N)=O)CC5)c4n3CC3CC3)n(C)c12 [Example 251, 4-(2-(5-((1R,4R,7R)-7-amino-2-azabicyclo[2.2.1]heptane-2-carbonyl)-7-methoxy-1-methyl-1H-benzo[d]imidazol-2-yl)-1-(cyclopropylmethyl)-1H-indol-7-yl)piperidine-1-carboxamide] |
| 58 |  | COc1cc(C(=O)N2C[C@H]3CC[C@@H]2[C@@H]3N)cc2nc(-c3cc4cccc(C5CCN(C(=O)NC(C)C)CC5)c4n3CC3CC3)n(C)c12 [Example 252, 4-(2-(5-((1R,4R,7R)-7-amino-2-azabicyclo[2.2.1]heptane-2-carbonyl)-7-methoxy-1-methyl-1H-benzo[d]imidazol-2-yl)-1-(cyclopropylmethyl)-1H-indol-7-yl)-N-isopropylpiperidine-1-carboxamide] |
|  | 191 | COc1cc(C(=O)N2C[C@H]3CC[C@@H]2[C@@H]3N)cc2nc(-c3cc4cccc(Nc5ccccc5CO)c4n3CC3CC3)n(C)c12 [compound 182, ((1R,4R,7R)-7-amino-2-azabicyclo[2.2.1]heptan-2-yl)(2-(1-(cyclopropylmethyl)-7-((2-(hydroxymethyl)phenyl)amino)-1H-indol-2 yl)-7-methoxy-1-methyl-1H-benzo[d]imidazol-5-yl)methanone] |
|  | 299 | COc1cc(C(=O)N2C[C@H]3CC[C@@H]2[C@@H]3N)cc2nc(-c3cc4cccc(-c5ccccc5)c4n3CC3CC3)n(C)c12 [compound 186] |
